Source: US5610297A, “Peptides ketoamides” (Georgia Tech Research Corp., priority 1995, dated 1997)

What was measured:
Half-life in plasma = format: in vitro ADME; conditions: unit inferred, unit assumed
[1] = test system: Calpain-mediated breakdown of spectrin in platelets; experiment: Platelet membrane permeability assay; format: cell-based, rat; set-up: unit not given here; conditions: numeric value, unit not given
Description: Platelet membrane permeability assay. Calpain-mediated breakdown of spectrin was measured by quantitative densitometry of the calpain-specific 150/155 kDa spectrin fragment doublet [see Siman et al., Proc. Natl. Acad. Sci. USA 81, 3572-3576 (1984)]. Platelets were isolated by a modification of the method of Ferrell and Martin [J. Biol. Chem. 264, 20723-20729 (1989)]. Blood (15-20 ml) was drawn from male Sprague-Dawley rats into 1/10th volume of 100 mM EDTA-citrate, and centrifuged 10 minutes at 2000 rpm in a clinical centrifuge at room temperature. […] Platelets were washed once in 15 ml buffer 1, then resuspended to 10^7 cells/ml in buffer 2 (136 mM NaCl, 2.7 mM KCl, 0.42 mM NaH2 PO4, 12 mM NaHCO3, 2mM MgCl, 1 mg/ml BSA (Sigma), 5.6 mM glucose, 20 mM HEPES (Sigma) pH 7.4) and allowed to "rest" for a minimum of 10 minutes at room temperature before use.
Inhibitors were added from stock solutions made fresh in DMSO. 100 μl platelets, suspended to 10^7 cells/ml in buffer 2, were incubated with 1 μl of an inhibitor solution for 5 minutes at room temperature prior to the addition of 2 mM Ca^2+ and 1 uM A23 187. After 10 minutes total exposure to inhibitor (5 minutes exposure to ionophore) at room temperature, platelets were reisolated at 14,000 rpm for 10 sec in a Beckman microfuge, dissolved in SDS-PAGE sample buffer, and heated to 90° C. for 3 minutes.
Samples were subjected to SDS-PAGE in 4-12% gradient mini gels (Novex) and transferred to nitrocellulose (Schleicher and Schuell 0.45 um) by electroblotting. Filters were blocked for 10 minutes in 0.25% gelatin, 1% BSA, 0.25% triton X100, 0.9% NaCl, 10 mM Tris-Cl pH 7.5, incubated overnight in the same solution containing antibody to rat spectrin, washed 3×10 minutes with 10 mM Tris-Cl pH 7.5, 0.5% triton X100, incubated 4 hours in wash buffer plus alkaline phosphatase conjugated goat anti-rabbit antibody (Biorad), and washed as above. Blots were developed using the Biorad AP conjugate substrate kit. Quantitative densitometry was used to obtain values for the intact spectrin bands and the 150/155 kDa breakdown product doublet.

[2] = target: Calpain II from rabbit muscle; experiment: Inhibition of calpain II (Suc-Leu-Tyr-AMC hydrolysis); format: biochemical
Description: (§1) Materials and Methods. HEPES, heparin, and A23187 were obtained from Calbiochem. Suc-Leu-Tyr-AMC and chromogenic substrates were obtained from Sigma. Calpain I was purified from human erythrocytes according to the method of Kitahara (Kitahara et al., J. Biochem. 95, 1759-1766) omitting the Blue-Sepharose step. Calpain II from rabbit muscle and cathepsin B were purchased from Sigma. Papain was purchased from Calbiochem.
(§2) Assay of Inhibitory Potency. Peptide α-ketoamides were assayed as reversible enzyme inhibitors. Various concentrations of inhibitors in Me2 SO were added to the assay mixture which contained buffer and substrate. The reaction was started by the addition of the enzyme and the hydrolysis rates were followed spectrophotometrically or fluorimetrically.
(§3) Calpain I from human erythrocytes and calpain II from rabbit were assayed using Suc-Leu-Tyr-AMC [Sasaki et al., J. Biol. Chem. 259, 12489-12494 (1984); incorporated herein by reference], and the AMC (7-amino-4-methylcoumarin) release was followed fluorimetrically (excitation at 380 nm, and emmision at 460 nm). Calpains were assayed in 25 mM Tris pH=8.0, 10 mM CaCl2. Fluorescence was followed using a Gilson FL-1A fluorometer or a Perkin-Elmer 203 Fluorescence spectrometer. Cathepsin B was assayed in 20 mM sodium acetate pH=5.2, 0.5 mM dithiothreitol using Bz-Phe-Val-Arg-p-nitroanilide as substrate. Alternately, cathepsin B was assayed with Z-Arg-Arg-AFC [Barrett and Kirschke, Methods Enzymol. 80, 535-561 (1981); incorporated herein by reference], and the AFC (7-amino-4-trifluoromethylcoumarin) release was followed fluorimetrically (excitation at 400 nm and emmision at 505 nm). Papain was assayed in 100 mM KPO4, 1 mM EDTA, 2.5 mM cysteine pH=6.0 using Bz-Arg-AMC or Bz-Arg-NA [Kanaoka et al., Chem. Plmrm. Bull. 25, 3126-3128 (1977); incorporated herein by reference] as a substrate. The AMC (7-amino-4-methylcoumarin) release was followed fluorimetrically (excitation at 380 nm, and emmision at 460 nm). Enzymatic hydrolysis rates were measured at various substrate and inhibitor concentrations, and KI values were determined by either Lineweaver-Burk plots or Dixon plots.
(§4) A 0.1M Hepes, 0.5M NaCl, pH 7.5 buffer was utilized for human leukocyte elastase (HLE), porcine pancreatic elastase (PPE), chymotrypsin and cathepsin G. A 0.1 Hepes, 0.01M CaCl2, pH 7.5 buffer was utilized for trypsin, plasmin, and coagulation enzymes. A 50 mM Tris-HCl, 2 mM EDTA, 5 mM cysteine, pH 7.5 was used as a buffer for papain. A 88 mM KH2 PO4, 12 mM Na2 HPO4, 1.33 mM EDTA, 2.7 mM cysteine, pH 6.0 solution was used as a buffer for cathepsin B. A 20 mM Hepes, 10 mM CaCl2, 10 mM mercatoethanol, pH 7.2 buffer was utilized for calpain I and calpain II.

cathepsin B = experiment: Inhibition of cathepsin B; format: biochemical; conditions: read-out: KI Cath B
Description: as §1, §2, §3, §4

chymotrypsin = chymotrypsin (Bos taurus, UniProt P00766, DEL14-15/DEL147-148); experiment: Inhibition of chymotrypsin (Suc-Val-Pro-Phe-NA hydrolysis); format: biochemical, bovine
Description: as §2, §4
(§5) HLE and PPE were assayed with MeO-Suc-Ala-Ala-Pro-Val-NA and Suc-Ala-Ala-Ala-NA, respectively [Nakajima et al., J. Biol. Chem. 254, 4027-4032 (1979); incorporated herein by reference]. Human leukocyte cathepsin G and chymotrypsin Aα were assayed with Suc-Val-Pro-Phe-NA [Tanaka et al., Biochemistry 24, 2040-2047 (1985); incorporated herein by reference]. The hydrolysis of peptide 4-nitroanilides was measured at 410 nm [ε410 =8800 M^-1 cm^-1; Erlanger et al., Arch. Biochem. Biophys. 95, pp 271-278 (1961); incorporated herein by reference]. Trypsin, thrombin, human plasma kallikrein, porcine pancreatic kallikrein, human factor XIa, and human plasmin were assayed with Z-Arg-SBzl or Z-Gly-Arg-SBu-i [McRae et al., Biochemistry 20, 7196-7206 (1981); incorporated herein by reference]. All peptide thioester hydrolysis rates were measured with assay mixtures containing 4,4'-dithiodipyridine [ε324 =19800 M^-1 cm^-1; Grasetti & Murray, Arch. Biochem. Biophys. 119, 41-49 (1967); incorporated herein by reference].

Half-life in liver = format: in vitro ADME; conditions: unit inferred, unit assumed
[3] = target: porcine pancreatic elastase (PPE) (Sus scrofa, UniProt P00772); experiment: Inhibition of PP elastase (Suc-Ala-Ala-Ala-NA hydrolysis); format: biochemical
Sequence of porcine pancreatic elastase (PPE) (P00772 27-266): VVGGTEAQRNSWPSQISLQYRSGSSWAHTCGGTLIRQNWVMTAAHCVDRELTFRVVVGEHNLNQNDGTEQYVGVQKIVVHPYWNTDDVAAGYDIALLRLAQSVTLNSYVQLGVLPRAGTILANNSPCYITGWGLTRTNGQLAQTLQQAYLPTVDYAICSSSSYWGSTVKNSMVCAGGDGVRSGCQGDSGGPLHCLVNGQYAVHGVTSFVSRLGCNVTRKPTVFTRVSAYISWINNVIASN
Description: as §2, §4, §5

SMILES	t 1/2 plasma (Half-life in plasma) [h]	Ki [2] [nM]	Ki (cathepsin B) [nM]	Ki (chymotrypsin) [nM]	t 1/2 liver (Half-life in liver) [h]	Ki [3] [nM]	platelet (Activity in the Platelet Assay) [1]
CCOC(=O)C(=O)[C@H](CC)NC(=O)[C@H](CC(C)C)NC(=O)[C@H](CC(C)C)NC(=O)c1ccc2ccccc2c1 [2-NapCO--Leu--Leu--Abu--COOEt]	0.417						
CCOC(=O)C(=O)C(CC)NC(=O)C(CC(C)C)NC(=O)C(CC(C)C)NS(=O)(=O)c1ccc2ccccc2c1 (stereo not drawn) [2-NapSO2--Leu--Leu--Abu--COOEt]	> 1						100
CCOC(=O)C(=O)[C@H](CC)NC(=O)[C@H](CC(C)C)NC(=O)[C@H](CC(C)C)NS(=O)(=O)c1ccc(C)cc1 [Tos--Leu--Leu--Abu--COOEt]	0.5						30
CC[C@H](NC(=O)[C@H](CC(C)C)NC(=O)OCc1ccccc1)C(=O)C(=O)NCCc1ccccc1 [Z--Leu--Abu--CONH--(CH2)2 --Ph, Z-Leu-Abu-CONH-(CH2)2 Ph]		22					
CCC(NC(=O)C(CC(C)C)NC(=O)OCc1ccccc1)C(=O)C(=O)NCCO (stereo not drawn) [Z--Leu--Abu--CONH--(CH2)2 OH, Z-Leu-Abu-CONH-(CH2)2 OH]		78					
CC[C@H](NC(=O)[C@H](CC(C)C)NC(=O)OCc1ccccc1)C(=O)C(=O)NCCCN1CCOCC1 [Z--Leu--Abu--CONH--(CH2)3 --Mpl, Z-Leu-Abu-CONH-(CH2)3 --N(CH2 CH2)2 O]		41					
CCCCCCCCNC(=O)C(=O)[C@H](CC)NC(=O)[C@H](CC(C)C)NC(=O)OCc1ccccc1 [Z--Leu--Abu--CONH--(CH2)7 CH3, Z-Leu-Abu-CONH--(CH2)7 CH3]		19					
CCC(NC(=O)C(CC(C)C)NC(=O)OCc1ccccc1)C(=O)C(=O)NCc1ccccc1 (stereo not drawn) [Z--Leu--Abu--CONH--Bzl, Z-Leu-Abu-CONH-Bzl]	> 1	350	2000	> 300000	> 1		1.5
CCC(NC(=O)C(CC(C)C)NC(=O)OCc1ccccc1)C(=O)C(=O)NCC(C)C (stereo not drawn) [Z--Leu--Abu--CONH--iBu, Z-Leu-Abu-CONH-iBu]	> 1	140	4000	> 300000		40000	28
CCCNC(=O)C(=O)[C@H](CC)NC(=O)[C@H](CC(C)C)NC(=O)OCc1ccccc1 [Z--Leu--Abu--CONH--nPr, Z-Leu-Abu-CONH-nPr]	> 1	250	8000	> 300000	> 1	2000	70
CCOC(=O)C(=O)[C@H](CC)NC(=O)[C@H](CC(C)C)NC(=O)OCc1ccccc1 [Z--Leu--Abu--COOEt]	0.0467						42
CCC(NC(=O)C(CC(C)C)NC(=O)OCc1ccccc1)C(=O)C(=O)O (stereo not drawn) [Z--Leu--Abu--COOH]	> 1				> 1		8
CCCCOC(=O)C(=O)[C@H](CC)NC(=O)[C@H](CC(C)C)NC(=O)OCc1ccccc1 [Z--Leu--Abu--COOn--Bu]							28
CCOC(=O)C(=O)C(CC)NC(=O)C(CC(C)C)NC(=O)C(CC(C)C)NC(=O)OCc1ccccc1 (stereo not drawn) [Z--Leu--Leu--Abu--COOEt]							40

Now from value to compound, other results behind:

t 1/2 plasma (Half-life in plasma) [h]	Ki [2] [nM]	Ki (cathepsin B) [nM]	Ki (chymotrypsin) [nM]	t 1/2 liver (Half-life in liver) [h]	Ki [3] [nM]	SMILES	platelet (Activity in the Platelet Assay) [1]
0.0617						CCCCC(NC(=O)C(CC(C)C)NC(=O)OCc1ccccc1)C(=O)C(=O)OCC (stereo not drawn) [Z--Leu--Nle--COOEt]	20
0.0467						CCCC(NC(=O)C(CC(C)C)NC(=O)OCc1ccccc1)C(=O)C(=O)OCC (stereo not drawn) [Z--Leu--Nva--COOEt]	40
> 1	24					CC(C)C[C@H](NC(=O)OCc1ccccc1)C(=O)N[C@@H](Cc1ccccc1)C(=O)C(=O)NCCc1ccccc1 [Z--Leu--Phe--CONH(CH2)2 Ph, Z-Leu-Phe-CONH-(CH2)2 Ph]	3.0
	46					CC(C)C[C@H](NC(=O)OCc1ccccc1)C(=O)N[C@@H](Cc1ccccc1)C(=O)C(=O)NCc1ccccc1 [Z--Leu--Phe--CONH--Bzl, Z-Leu-Phe-CONH-Bzl]	
> 1	65	4000	24000			CC(C)CNC(=O)C(=O)[C@H](Cc1ccccc1)NC(=O)[C@H](CC(C)C)NC(=O)OCc1ccccc1 [Z--Leu--Phe--CONH--iBu, Z-Leu-Phe-CONH-iBu]	22
> 1	28	3000	8000	> 1	> 100000	CCCCNC(=O)C(=O)C(Cc1ccccc1)NC(=O)C(CC(C)C)NC(=O)OCc1ccccc1 (stereo not drawn) [Z--Leu--Phe--CONH--nBu, Z-Leu-Phe-CONH-nBu]	38
0.13						CCOC(=O)C(=O)C(Cc1ccccc1)NC(=O)C(CC(C)C)NC(=O)OCc1ccccc1 (stereo not drawn) [Z--Leu--Phe--COOEt, Z-Leu-Phe-COOEt]	42
> 1				> 1		CC(C)CC(NC(=O)OCc1ccccc1)C(=O)NC(Cc1ccccc1)C(=O)C(=O)O (stereo not drawn) [Z--Leu--Phe--COOH]	6.5
